Test results taken from patent publication US20220088016A1, “CANCER TREATMENT USING MULTI-TARGETED KINASE INHIBITOR IN COMBINATION OF PROTEIN KINASE BIOMARKERS” (ZHEJIANG CROWNMAB BIOTECH CO. LTD., priority 2019, published 2022).

What was measured:
[1] = molecular target: SLK (Homo sapiens, UniProt Q9H2G2); experiment: Kinase profiling; assay type: binding; settings: read-out: % Ctrl @ 1000 nM
[2] = molecular target: PKN1 (Homo sapiens, UniProt Q16512); experiment: Kinase profiling; assay type: binding; settings: read-out: % Ctrl @ 1000 nM
[3] = molecular target: LATS2 (Homo sapiens, UniProt Q9NRM7); experiment: Kinase profiling; assay type: binding; settings: read-out: % Ctrl @ 1000 nM
[4] = molecular target: ALK (C1156Y) (Homo sapiens, UniProt Q9UM73, C1156Y); experiment: Kinase profiling; assay type: binding; settings: read-out: % Ctrl @ 1000 nM
[5] = molecular target: PHKG1 (Homo sapiens, UniProt Q16816); experiment: Kinase profiling; assay type: binding; settings: read-out: % Ctrl @ 1000 nM
[6] = molecular target: BTK (Homo sapiens, UniProt Q06187); experiment: Kinase profiling; assay type: binding; settings: read-out: % Ctrl @ 1000 nM
[7] = molecular target: EGFR (Homo sapiens, UniProt P00533); experiment: Kinase profiling; assay type: binding; settings: read-out: % Ctrl @ 1000 nM
[8] = molecular target: GRK1 (Homo sapiens, UniProt Q15835); experiment: Kinase profiling; assay type: binding; settings: read-out: % Ctrl @ 1000 nM
[9] = molecular target: PFTK1 (Homo sapiens, UniProt O94921); experiment: Kinase profiling; assay type: binding; settings: read-out: % Ctrl @ 1000 nM
[10] = molecular target: CSNK1A1L (Homo sapiens, UniProt Q8N752); experiment: Kinase profiling; assay type: binding; settings: read-out: % Ctrl @ 1000 nM
CSNK1A1L, sequence (Q8N752 whole entry): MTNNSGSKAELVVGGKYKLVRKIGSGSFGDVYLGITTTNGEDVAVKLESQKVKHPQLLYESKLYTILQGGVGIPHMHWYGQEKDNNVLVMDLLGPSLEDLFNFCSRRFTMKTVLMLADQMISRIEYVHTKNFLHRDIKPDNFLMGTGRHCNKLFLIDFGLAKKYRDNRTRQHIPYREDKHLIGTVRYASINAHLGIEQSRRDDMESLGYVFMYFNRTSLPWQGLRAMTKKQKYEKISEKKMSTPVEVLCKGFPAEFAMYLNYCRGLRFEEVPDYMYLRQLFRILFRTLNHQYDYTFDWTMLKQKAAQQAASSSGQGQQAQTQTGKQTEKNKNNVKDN

[11] = molecular target: T1, NEK2 (Homo sapiens, UniProt P51955); experiment: Kinase profiling; assay type: binding; settings: read-out: % Ctrl @ 1000 nM
T1 construct: T7 phage fusion (said for most assays); made in house

[12] = molecular target: RIPK5 (Homo sapiens, UniProt Q6XUX3); experiment: Kinase profiling; assay type: binding; settings: read-out: % Ctrl @ 1000 nM
RIPK5, sequence (Q6XUX3 whole entry): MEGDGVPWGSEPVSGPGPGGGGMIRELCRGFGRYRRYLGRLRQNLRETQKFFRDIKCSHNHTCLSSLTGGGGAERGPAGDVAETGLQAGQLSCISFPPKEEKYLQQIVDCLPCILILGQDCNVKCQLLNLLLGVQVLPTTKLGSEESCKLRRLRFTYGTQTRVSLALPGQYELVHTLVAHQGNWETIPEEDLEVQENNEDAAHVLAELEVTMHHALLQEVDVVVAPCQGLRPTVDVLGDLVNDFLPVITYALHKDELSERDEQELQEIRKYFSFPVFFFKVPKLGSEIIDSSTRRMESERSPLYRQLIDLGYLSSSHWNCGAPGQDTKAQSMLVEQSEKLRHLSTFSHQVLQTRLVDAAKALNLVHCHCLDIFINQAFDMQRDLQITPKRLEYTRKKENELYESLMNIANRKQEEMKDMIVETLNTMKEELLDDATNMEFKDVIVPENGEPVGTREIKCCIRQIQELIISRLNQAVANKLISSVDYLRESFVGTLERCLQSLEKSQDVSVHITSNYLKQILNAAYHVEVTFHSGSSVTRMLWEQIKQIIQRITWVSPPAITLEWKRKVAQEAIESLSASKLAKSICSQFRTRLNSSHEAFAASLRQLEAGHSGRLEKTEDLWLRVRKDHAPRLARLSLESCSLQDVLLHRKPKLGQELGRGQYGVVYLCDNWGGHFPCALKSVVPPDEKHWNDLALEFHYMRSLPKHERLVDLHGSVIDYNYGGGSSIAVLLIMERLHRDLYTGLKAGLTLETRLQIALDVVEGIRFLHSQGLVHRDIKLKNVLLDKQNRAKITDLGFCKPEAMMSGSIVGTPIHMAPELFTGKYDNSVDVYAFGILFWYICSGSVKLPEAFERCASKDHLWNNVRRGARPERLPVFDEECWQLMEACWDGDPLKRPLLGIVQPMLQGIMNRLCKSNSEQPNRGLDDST

[13] = system: 403 non-mutant kinases; experiment: Selectivity Score from kinase profiling
Procedure: Streptavidin-coated magnetic beads were treated with biotinylated small molecule ligands of the kinases for 30 minutes at room temperature to generate affinity resins for kinase assays. The liganded beads were blocked with excess biotin and washed with blocking buffer (SeaBlock (Pierce), 1% BSA, 0.05% Tween 20, 1 mM DTT) to remove unbound ligand and to reduce non-specific phage binding. Binding reactions were assembled by combining kinases, liganded affinity beads, and test compounds in 1× binding buffer (20% SeaBlock, 0.17×PBS, 0.05% Tween 20, 6 mM DTT). Test compounds were prepared as 40× stocks in 100% DMSO and directly diluted into the assay. All reactions were performed in polypropylene 384-well plates in a final volume of 0.04 ml. The assay plates were incubated at room temperature with shaking for 1 hour and the affinity beads were washed with wash buffer (1×PBS, 0.05% Tween 20). The beads were then re-suspended in elution buffer (1×PBS, 0.05% Tween 20, 0.5 μM non-biotinylated affinity ligand) and incubated at room temperature with shaking for 30 minutes. The kinase concentration in the eluates was measured by qPCR.
Selectivity Score or S-score is a quantitative measure of compound selectivity. It is calculated by dividing the number of kinases that compounds bind to by the total number of distinct kinases tested, excluding mutant variants.
S=Number of hits/Number of assays
This value can be calculated using % Ctrl as a potency threshold (below) and provides a quantitative method of describing compound selectivity to facilitate comparison of different compounds.
S(35)=(number of non-mutant kinases with % Ctrl<35)/(number of non-mutant kinases tested)
S(10)=(number of non-mutant kinases with % Ctrl<10)/(number of non-mutant kinases tested)
S(1)=(number of non-mutant kinases with % Ctrl<1)/(number of non-mutant kinases tested)

[14] = system: CD8 (T cell surface marker); experiment: CD8 IHC test in MC-38 tumor; assay type: in vivo, mouse; settings: MC-38 tumors; vs vehicle group
Procedure: MC38 tumor tissues were collected at the end of the in vivo efficacy trial. The tumor tissue was then embedded in paraffin. The expression of CD3/CD4/CD8/F4-80 were tested by immunohistochemistry stain.

[15] = molecular target: FGFR2 (Homo sapiens, UniProt P21802); experiment: Kinase profiling; assay type: binding; settings: read-out: % Ctrl @ 1000 nM
[16] = molecular target: T2, NEK1 (Homo sapiens, UniProt Q96PY6); experiment: Kinase profiling; assay type: binding; settings: read-out: % Ctrl @ 1000 nM
T2 construct: T7 phage fusion (said for most assays); made in house

[17] = molecular target: EGFR (G719S) (Homo sapiens, UniProt P00533, G719S); experiment: Kinase profiling; assay type: binding; settings: read-out: % Ctrl @ 1000 nM
[18] = molecular target: PIK3C2G (Homo sapiens, UniProt O75747); experiment: Kinase profiling; assay type: binding; settings: read-out: % Ctrl @ 1000 nM
[19] = molecular target: FLT4 (Homo sapiens, UniProt P35916); experiment: Kinase profiling; assay type: binding; settings: read-out: % Ctrl @ 1000 nM
[20] = molecular target: CDK5 (Homo sapiens, UniProt Q00535); experiment: Kinase profiling; assay type: binding; settings: read-out: % Ctrl @ 1000 nM
CDK5, sequence (Q00535 whole entry): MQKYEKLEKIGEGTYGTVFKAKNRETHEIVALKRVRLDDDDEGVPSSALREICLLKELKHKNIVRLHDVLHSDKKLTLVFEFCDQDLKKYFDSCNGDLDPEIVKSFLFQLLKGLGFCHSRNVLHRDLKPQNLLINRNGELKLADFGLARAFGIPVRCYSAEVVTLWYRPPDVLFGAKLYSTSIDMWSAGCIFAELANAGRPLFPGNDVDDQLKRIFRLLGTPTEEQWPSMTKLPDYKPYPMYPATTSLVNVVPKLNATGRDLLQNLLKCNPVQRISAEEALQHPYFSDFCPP

[21] = molecular target: GRK3 (Homo sapiens, UniProt P35626); experiment: Kinase profiling; assay type: binding; settings: read-out: % Ctrl @ 1000 nM
[22] = molecular target: ADCK4 (Homo sapiens, UniProt Q96D53); experiment: Kinase profiling; assay type: binding; settings: read-out: % Ctrl @ 1000 nM
[23] = molecular target: PIK3CA (E545A) (Homo sapiens, UniProt P42336, E545A); experiment: Kinase profiling; assay type: binding; settings: read-out: % Ctrl @ 1000 nM
PIK3CA (E545A), sequence (P42336 whole entry E545A): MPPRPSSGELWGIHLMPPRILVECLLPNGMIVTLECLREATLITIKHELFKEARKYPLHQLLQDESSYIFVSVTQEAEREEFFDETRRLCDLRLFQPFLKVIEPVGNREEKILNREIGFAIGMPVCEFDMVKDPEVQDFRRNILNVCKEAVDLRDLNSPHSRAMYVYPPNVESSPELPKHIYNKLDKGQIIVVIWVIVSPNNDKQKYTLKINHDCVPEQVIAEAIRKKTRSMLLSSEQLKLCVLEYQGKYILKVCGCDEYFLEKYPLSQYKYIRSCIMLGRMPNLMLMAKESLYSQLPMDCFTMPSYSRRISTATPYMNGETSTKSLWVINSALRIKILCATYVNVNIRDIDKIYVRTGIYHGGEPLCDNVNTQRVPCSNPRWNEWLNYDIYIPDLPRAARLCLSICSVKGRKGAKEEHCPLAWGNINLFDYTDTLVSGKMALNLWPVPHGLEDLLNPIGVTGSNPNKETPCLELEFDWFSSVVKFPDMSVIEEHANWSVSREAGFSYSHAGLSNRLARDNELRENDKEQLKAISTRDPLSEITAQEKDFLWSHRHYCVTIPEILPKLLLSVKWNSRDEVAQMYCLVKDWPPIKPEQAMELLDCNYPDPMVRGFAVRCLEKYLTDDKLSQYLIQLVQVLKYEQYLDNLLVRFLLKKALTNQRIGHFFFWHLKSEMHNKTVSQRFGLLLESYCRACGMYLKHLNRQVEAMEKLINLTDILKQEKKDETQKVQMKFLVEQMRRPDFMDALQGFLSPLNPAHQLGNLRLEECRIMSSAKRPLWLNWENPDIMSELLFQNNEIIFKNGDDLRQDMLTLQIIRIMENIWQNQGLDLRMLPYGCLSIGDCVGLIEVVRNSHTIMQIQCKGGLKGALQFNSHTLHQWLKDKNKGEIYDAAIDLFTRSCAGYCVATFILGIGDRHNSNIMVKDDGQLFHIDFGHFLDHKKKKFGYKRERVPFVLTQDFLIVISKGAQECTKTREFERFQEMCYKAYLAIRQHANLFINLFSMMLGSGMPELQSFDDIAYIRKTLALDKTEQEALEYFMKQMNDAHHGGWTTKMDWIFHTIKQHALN

[24] = molecular target: ABL1 (H396P)-phosphorylated (Homo sapiens, UniProt P00519, H396P); experiment: Kinase profiling; assay type: binding; settings: read-out: % Ctrl @ 1000 nM
[25] = molecular target: T3, MET (M1250T) (Homo sapiens, UniProt P08581, M1250T); experiment: Kinase profiling; assay type: binding; settings: read-out: % Ctrl @ 1000 nM
T3 construct: T7 phage fusion (stated for most kinases of the panel only); made in house; host or cells: T7 phage in E. coli (BL21-derived) or HEK-293 cells

[26] = molecular target: DMPK (Homo sapiens, UniProt Q09013); experiment: Kinase profiling; assay type: binding; settings: read-out: % Ctrl @ 1000 nM
[27] = molecular target: T4, NLK (Homo sapiens, UniProt Q9UBE8); experiment: Kinase profiling; assay type: binding; settings: read-out: % Ctrl @ 1000 nM
T4 construct: T7 phage fusion (said for most assays); made in house

[28] = molecular target: TNNI3K (Homo sapiens, UniProt Q59H18); experiment: Kinase profiling; assay type: binding; settings: read-out: % Ctrl @ 1000 nM
[29] = molecular target: QSK (Homo sapiens, UniProt Q9Y2K2); experiment: Kinase profiling; assay type: binding; settings: read-out: % Ctrl @ 1000 nM
[30] = molecular target: TSSK1B (Homo sapiens, UniProt Q9BXA7); experiment: Kinase profiling; assay type: binding; settings: read-out: % Ctrl @ 1000 nM
TSSK1B, sequence (Q9BXA7 whole entry): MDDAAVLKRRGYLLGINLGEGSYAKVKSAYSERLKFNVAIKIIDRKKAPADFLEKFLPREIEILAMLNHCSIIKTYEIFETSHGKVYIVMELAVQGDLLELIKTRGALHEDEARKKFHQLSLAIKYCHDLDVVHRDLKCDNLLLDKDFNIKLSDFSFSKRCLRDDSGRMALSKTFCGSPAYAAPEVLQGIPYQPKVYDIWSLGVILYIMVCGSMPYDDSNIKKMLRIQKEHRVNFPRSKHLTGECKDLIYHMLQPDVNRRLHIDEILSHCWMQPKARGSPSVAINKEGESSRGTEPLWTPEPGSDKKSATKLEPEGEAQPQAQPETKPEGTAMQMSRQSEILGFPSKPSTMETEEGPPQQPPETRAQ

[31] = molecular target: T5, MEK5 (Homo sapiens, UniProt Q13163); experiment: Kinase profiling; assay type: binding; settings: read-out: % Ctrl @ 1000 nM
T5 construct: T7 phage fusion (stated for most kinases of the panel only); made in house; host or cells: T7 phage in E. coli (BL21-derived) or HEK-293 cells

[32] = molecular target: JAK1 (JH1domain-catalytic) (Homo sapiens, UniProt P23458); experiment: Kinase profiling; assay type: binding; settings: read-out: % Ctrl @ 1000 nM
[33] = molecular target: ERK3 (Homo sapiens, UniProt Q16659); experiment: Kinase profiling; assay type: binding; settings: read-out: % Ctrl @ 1000 nM
ERK3, sequence (Q16659 whole entry): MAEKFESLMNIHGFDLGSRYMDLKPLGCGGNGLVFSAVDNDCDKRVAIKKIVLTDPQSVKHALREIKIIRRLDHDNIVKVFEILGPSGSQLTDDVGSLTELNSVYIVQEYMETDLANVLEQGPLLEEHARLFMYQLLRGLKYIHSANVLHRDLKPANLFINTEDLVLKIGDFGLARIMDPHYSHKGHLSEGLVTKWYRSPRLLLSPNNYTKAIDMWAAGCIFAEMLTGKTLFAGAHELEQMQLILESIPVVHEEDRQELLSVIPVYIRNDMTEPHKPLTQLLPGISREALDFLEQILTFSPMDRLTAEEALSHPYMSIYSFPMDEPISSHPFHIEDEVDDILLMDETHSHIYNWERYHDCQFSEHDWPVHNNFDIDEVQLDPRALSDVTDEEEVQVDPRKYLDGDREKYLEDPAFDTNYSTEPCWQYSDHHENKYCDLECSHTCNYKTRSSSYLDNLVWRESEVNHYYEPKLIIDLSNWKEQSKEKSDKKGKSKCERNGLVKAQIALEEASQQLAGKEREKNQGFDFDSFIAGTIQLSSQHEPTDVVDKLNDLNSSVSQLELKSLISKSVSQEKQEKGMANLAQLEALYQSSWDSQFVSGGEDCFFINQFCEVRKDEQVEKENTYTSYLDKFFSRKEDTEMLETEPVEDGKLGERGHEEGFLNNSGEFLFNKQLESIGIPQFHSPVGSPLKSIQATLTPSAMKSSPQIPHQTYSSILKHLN

[34] = molecular target: IKK-epsilon (Homo sapiens, UniProt Q14164); experiment: Kinase profiling; assay type: binding; settings: read-out: % Ctrl @ 1000 nM
[35] = molecular target: DYRK1A (Homo sapiens, UniProt Q13627); experiment: Kinase profiling; assay type: binding; settings: read-out: % Ctrl @ 1000 nM
[36] = molecular target: T6, NEK11 (Homo sapiens, UniProt Q8NG66); experiment: Kinase profiling; assay type: binding; settings: read-out: % Ctrl @ 1000 nM
T6 construct: T7 phage fusion (said for most assays); made in house

[37] = molecular target: PKAC-alpha (Homo sapiens, UniProt P17612); experiment: Kinase profiling; assay type: binding; settings: read-out: % Ctrl @ 1000 nM

SLK, sequence (Q9H2G2 whole entry): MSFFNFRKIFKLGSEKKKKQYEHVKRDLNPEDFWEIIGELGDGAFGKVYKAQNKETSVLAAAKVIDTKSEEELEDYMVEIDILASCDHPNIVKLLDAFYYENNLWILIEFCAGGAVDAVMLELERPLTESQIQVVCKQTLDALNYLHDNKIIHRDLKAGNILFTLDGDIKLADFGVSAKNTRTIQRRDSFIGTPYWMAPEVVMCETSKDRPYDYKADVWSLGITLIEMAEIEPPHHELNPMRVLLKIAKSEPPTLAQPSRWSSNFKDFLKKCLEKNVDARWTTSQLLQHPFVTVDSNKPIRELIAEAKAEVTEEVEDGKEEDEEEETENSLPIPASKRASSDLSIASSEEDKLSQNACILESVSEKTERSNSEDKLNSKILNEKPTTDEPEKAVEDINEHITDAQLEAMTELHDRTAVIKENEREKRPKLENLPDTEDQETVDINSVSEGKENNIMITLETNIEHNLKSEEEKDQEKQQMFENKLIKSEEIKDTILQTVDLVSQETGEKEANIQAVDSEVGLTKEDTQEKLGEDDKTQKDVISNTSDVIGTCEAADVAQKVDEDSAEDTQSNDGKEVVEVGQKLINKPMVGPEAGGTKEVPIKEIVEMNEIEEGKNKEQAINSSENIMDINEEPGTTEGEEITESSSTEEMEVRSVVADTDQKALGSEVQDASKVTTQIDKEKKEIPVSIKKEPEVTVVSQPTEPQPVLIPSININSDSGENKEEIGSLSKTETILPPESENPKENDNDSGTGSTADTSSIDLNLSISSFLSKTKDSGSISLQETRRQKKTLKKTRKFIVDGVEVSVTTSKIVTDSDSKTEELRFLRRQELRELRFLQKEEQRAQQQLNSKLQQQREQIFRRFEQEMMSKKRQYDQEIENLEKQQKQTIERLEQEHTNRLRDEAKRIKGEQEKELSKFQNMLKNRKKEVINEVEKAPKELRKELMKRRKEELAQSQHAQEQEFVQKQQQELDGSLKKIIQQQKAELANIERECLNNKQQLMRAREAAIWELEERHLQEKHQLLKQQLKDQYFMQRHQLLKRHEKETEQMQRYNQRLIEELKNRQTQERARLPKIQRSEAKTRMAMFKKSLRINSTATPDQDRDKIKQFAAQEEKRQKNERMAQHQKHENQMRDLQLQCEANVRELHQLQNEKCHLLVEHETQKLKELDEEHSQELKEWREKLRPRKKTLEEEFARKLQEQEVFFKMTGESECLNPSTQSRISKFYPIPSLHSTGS

`Cc1cc(Oc2cc(NC(=O)C3CC3)ncn2)ccc1NC(=O)Nc1ccc(Cl)c(C(F)(F)F)c1` [CBT-102] showed a remaining activity at 1 µM [1] of 1.4%, a remaining activity at 1 µM [2] of 100% and a remaining activity at 1 µM [3] of 100%. It also gave a remaining activity at 1 µM [4] of 97%, a remaining activity at 1 µM [5] of 96% and a remaining activity at 1 µM [6] of 77%. The remaining activity at 1 µM [7] was 76%, the remaining activity at 1 µM [8] was 100% and the remaining activity at 1 µM [9] was 34%. It also gave a remaining activity at 1 µM [10] of 100%, a remaining activity at 1 µM [11] of 98% and a remaining activity at 1 µM [12] of 100%. The “Selectivity Score S (1)” value ([13]; % Ctrl<1, 1000 nM) was 0.032, the “Selectivity Score S (10)” value ([13]; % Ctrl<10, 1000 nM) was 0.089 and the “Selectivity Score S (35)” value ([13]; % Ctrl<35, 1000 nM) was 0.151. The “Number of Hits, S (1)” value ([13]; non-mutant kinases with % Ctrl<1, 1000 nM) was 13, the “Number of Hits, S (10)” value ([13]; non-mutant kinases with % Ctrl<10, 1000 nM) was 36 and the “Number of Hits, S (35)” value ([13]; non-mutant kinases with % Ctrl<35, 1000 nM) was 61. For the same compound, the “effect on T cell surface marker CD8 (IHC)” value [14] was “no significant effect”, the remaining activity at 1 µM [15] was 62% and the remaining activity at 1 µM [16] was 100%. For the same compound, the remaining activity at 1 µM [17] was 84%, the remaining activity at 1 µM [18] was 100% and the remaining activity at 1 µM [19] was 0.05%. For the same compound, the remaining activity at 1 µM [20] was 92%, the remaining activity at 1 µM [21] was 97% and the remaining activity at 1 µM [22] was 88%. The remaining activity at 1 µM [23] was 100%, the remaining activity at 1 µM [24] was 83% and the remaining activity at 1 µM [25] was 84%. For the same compound, the remaining activity at 1 µM [26] was 93%, the remaining activity at 1 µM [27] was 16% and the remaining activity at 1 µM [28] was 31%. It also gave a remaining activity at 1 µM [29] of 91%, a remaining activity at 1 µM [30] of 87% and a remaining activity at 1 µM [31] of 6.2%. For the same compound, the remaining activity at 1 µM [32] was 78%, the remaining activity at 1 µM [33] was 100% and the remaining activity at 1 µM [34] was 100%. The remaining activity at 1 µM [35] was 97%, the remaining activity at 1 µM [36] was 100% and the remaining activity at 1 µM [37] was 97%.
